Reference: paper PMC3574223 (Bioorganic & medicinal chemistry, 2013)

Tested on: human aortic smooth muscle cells (HASMCs)
Assay: Intracellular NO determination using DAF-FM DA
Type: cell-based
Settings: increasing ABH concentrations 1 µM-5 mM

## N[C@@H](CCCCB(O)O)C(=O)O [ABH, S-2-amino-6-boronic acid]
  intracellular NO and/or N2O3 (DAF-FM DA fluorescence): the amount of intracellular NO rises with increasing concentrations of ABH
